What was measured:
C5a receptor [1] = molecular target: T1, C5a receptor (Homo sapiens, UniProt P21730); experiment: Calcium Mobilization Assay (C5a-induced Ca2+ mobilization, FLIPR, differentiated U937 cells); assay type: cell-based; parameters: endogenous in cells; host or cells: U937 cells differentiated with dibutyryl cAMP; settings: […] recombinant human C5a, 20 min pre-incubation, multiple values = duplicate experiments, read-out: C5a Induced Ca Mobil. Average IC50
T1 sequence (P21730 1-350): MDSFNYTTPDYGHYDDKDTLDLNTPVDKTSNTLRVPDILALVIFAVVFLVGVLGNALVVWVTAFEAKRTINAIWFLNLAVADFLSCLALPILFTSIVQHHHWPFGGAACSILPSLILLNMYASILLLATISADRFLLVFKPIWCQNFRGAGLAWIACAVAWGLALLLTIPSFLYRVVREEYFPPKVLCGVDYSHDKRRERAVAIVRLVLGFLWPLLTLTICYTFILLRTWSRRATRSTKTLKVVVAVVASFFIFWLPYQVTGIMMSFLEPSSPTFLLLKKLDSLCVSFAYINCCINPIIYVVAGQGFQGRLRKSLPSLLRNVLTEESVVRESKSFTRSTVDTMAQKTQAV
Method: U937 cells (human monocytic cell line) were cultured in RPMI-1640 medium supplemented with 10% fetal bovine serum, 10 mM HEPES, 0.11 g/L pyruvate, 0.29 g/L L-glutamine, 100 IU/mL penicillin G and […] streptomycin. Dibutyryl cAMP (1 mM) was added to induce differentiation 2 or 3 days prior to loading the cells with 4.4 μM Fluo-3AM (Molecular Probes) for 30 min at 37° C. in RPMI medium containing 20 mM HEPES, 0.1% bovine serum albumin (BSA) and 5 mM probenecid. After washing, cells were dissolved at 2×10^6 cells/ml in HBSS buffer (Invitrogen 14190-094) supplemented with 10 mM HEPES, 2.5 mM probenecid and 0.1% BSA (pH=7.4), and sedimented by 1 min centrifugation (1500 rpm) in black 96-well plates (Costar) (200,000 cells/well). A 100× concentration range of test compounds was prepared in DMSO and further diluted in HBSS buffer. U937 cells were pre-incubated with compound for 20 minutes at room temperature (1% DMSO), before recombinant human C5a (Sigma) was added to the cells (1.5 nM). Changes in intracellular free Ca^2+ concentration were measured using the Fluorescent Imaging Plate Reader (FLIPR, Molecular Devices). Fluorescence was recorded every second from 10 seconds before the addition of C5a until 2 min after the addition. The maximal fluorescence obtained during this time frame was used for further calculations.

C5a receptor [2] = molecular target: T1, C5a receptor; experiment: [125I]-C5a Radioligand Binding Assay (competition binding, differentiated U937 cells); settings: [125I]-C5a 0.05 nM, U937 cells, multiple values = duplicate experiments; for inhibition at 1 µM: read-out: [125I]-C5a Binding % Inhibition 1 μM, test compound 1 μM; for inhibition at 10 µM: read-out: [125I]-C5a Binding % Inhibition 10 μM, test compound 10 μM;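 on all read-outs here: cells preincubated with compound 30 min at room temperature, then 60 min at 4 °C with radioligand, bound counts read by scintillation, nonspecific binding defined with 100 nM C5a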
Method: Competition binding assays for C5a receptors were performed by incubation of differentiated U937 cells (200,000 cells/well), test compound (1% DMSO) and [^125I]-C5a (Bolton & Hunter labeled, Perkin Elmer, specific activity=2200 Ci/mmol, 0.05 nM final) in binding buffer consisting of 50 mM HEPES, 5 mM MgCl2, 1 mM CaCl2, 0.5% protease-free BSA, 0.02% NaN3, pH 7.4. 100× solutions of test compounds were prepared in DMSO and further diluted in binding buffer. Non-specific binding was defined in wells containing 100 nM recombinant C5a. Cells and compound were pre-incubated for 30 min at RT. After addition of the radioligand, further incubation for 60 min occurred at 4° C. Cells were harvested on GF/B filters—presoaked in 0.5% polyethylenimine, followed by washing with binding buffer containing 500 mM NaCl, pH 7.4. Filter bound radioactivity was determined by liquid scintillation counting. IC50 and Ki values were calculated using non-linear regression in Graphpad Prism. Ki is calculated using the equation of Cheng and Prusoff (Biochem. Pharmacol. 1973, 22: 3099-3108)

Structure (SMILES) | IC50 (C5a receptor [1]) | inhibition at 1 µM (C5a receptor [2]) | inhibition at 10 µM (C5a receptor [2]) | [125I]-C5a Binding % Inhibition 1 μM (C5a receptor [2]; test compound 1 μM) | [125I]-C5a Binding % Inhibition 10 μM (C5a receptor [2]; test compound 10 μM)
COc1ccc(C)c(NC2CCCc3nc(-c4c(C)cccc4C)cc(OC)c32)c1 (stereo not drawn) [Compound 37] | 0.543 µM | 74% | 86% | – | –
COc1ccc(C)c(N(C)C2CCCc3nc(-c4c(C)cccc4C)cc(OC)c32)c1 (stereo not drawn) [Compound 69] | 3.22 µM | 76% | 85% | – | –
CCc1cccc(CC)c1-c1cc(OC)c2c(n1)CCCC2N1CCc2ccccc21 (stereo not drawn) [Compound 93] | > 10 µM | 68% | 80% | – | –
CCc1cccc(CC)c1-c1cc(OC)c2c(n1)CCCC2Nc1ccccc1C#N (stereo not drawn) [Compound 74] | 4.9 µM | 19% | 52% | – | –
CCc1cccc(CC)c1-c1cc(OC)c2c(n1)CCCC2Oc1cccc2ccccc12 (stereo not drawn) [Compound 105] | > 10 µM | 55% | 70% | – | –
CCc1cccc(CC)c1-c1cc(OC)c2c(n1)CCCC2N(C)CCc1ccccc1 (stereo not drawn) [Compound 87] | > 10 µM | – | – | 17% | 51%
CCc1cccc(CC)c1-c1cc(OC)c2c(n1)CCCC2N1CCc2ccc(Cl)cc2C1 (stereo not drawn) [Compound 51] | 1.41 µM | 83% | 89% | – | –
CCc1cccc(CC)c1-c1cc(OC)c2c(n1)CCCC2Nc1cc(OC)ccc1OC (stereo not drawn) [Compound 34] | 0.417 µM | 83% | 89% | – | –
COc1cc(-c2c(C)cccc2C)nc2c1C(N(C)c1cccc(Cl)c1C)CCC2 (stereo not drawn) [Compound 115] | > 10 µM | 75% | 80% | – | –
COc1cc(-c2c(C)cccc2C)nc2c1C(N(C)c1cccc3c1CCN(C)C3)CCC2 (stereo not drawn) [Compound 112] | > 10 µM | 36% | 70% | – | –
CCc1cccc(CC)c1-c1cc(OC)c2c(n1)CCCC2N(C)c1cc(Cl)ccc1C (stereo not drawn) [Compound 67] | 2.56 µM | 82% | 86% | – | –
CCc1cccc(CC)c1-c1cc(OCc2ccccc2)c2c(n1)CCCC2N(CC)c1cccc2ccccc12 (stereo not drawn) [Compound 27] | 0.273 µM | 90% | 94% | – | –
COc1cc(-c2c(C)cccc2C)nc2c1C(N(C)c1cc(C)ccc1C(C)C)CCC2 (stereo not drawn) [Compound 110] | > 10 µM | 77% | 82% | – | –
COc1cc(-c2c(C)cccc2C)nc2c1C(N(C)c1cccc3ccccc13)CCC2 (stereo not drawn) [Compound 61] | 2.19 µM | 76% | 88% | – | –
CCOc1cc(-c2c(CC)cccc2CC)nc2c1C(N(CC)c1cccc3ccccc13)CCC2 (racemic) [Compound 8, (±)-[2-(2,6-Diethyl-Phenyl)-4-ethoxy-5,6,7,8-tetrahydro-quinolin-5-yl]-ethyl-naphthlen-1-yl-amine] | 0.067 µM | 94% | 96% | – | –
CCc1cccc(CC)c1-c1cc(OC)c2c(n1)CCCC2N(C)C1CCCCC1 (stereo not drawn) [Compound 124] | > 10 µM | 2% | 33% | – | –
COc1cc(-c2c(C)cccc2C)nc2c1C(N(CC#N)c1cccc3ccccc13)CCC2 (stereo not drawn) [Compound 49] | 1.38 µM | 59% | 80% | – | –
CCN(c1cccc2ccccc12)C1CCCc2nc(-c3c(C)cc(OC)cc3C)cc(OC)c21 (stereo not drawn) [Compound 21] | 0.169 µM | 91% | 93% | – | –

Structure (SMILES) | IC50 (C5a receptor [1]) | inhibition at 1 µM (C5a receptor [2]) | inhibition at 10 µM (C5a receptor [2]) | [125I]-C5a Binding % Inhibition 1 μM (C5a receptor [2]; test compound 1 μM) | [125I]-C5a Binding % Inhibition 10 μM (C5a receptor [2]; test compound 10 μM)
COc1ccc2cccc(N(C)C3CCCc4nc(-c5c(C)cccc5C)cc(OC)c43)c2c1 (stereo not drawn) [Compound 116] | > 10 µM | 87% | 86% | – | –
CCc1cccc(CC)c1-c1cc(OC)c2c(n1)CCCC2Nc1cc(C(F)(F)F)ccc1C (stereo not drawn) [Compound 28] | 0.287 µM | 88% | 92% | – | –
COc1cc(-c2c(C)cccc2C)nc2c1C(Oc1cc(C(C)C)ccc1C)CCC2 (stereo not drawn) [Compound 111] | > 10 µM | 82% | 85% | – | –
CCc1cccc(CC)c1-c1cc(OC)c2c(n1)CCCC2Nc1ccccc1CO (stereo not drawn) [Compound 15] | 0.177 µM | 79% | 90% | – | –
CCc1cccc(CC)c1-c1cc(OC)c2c(n1)CCCC2N(C)Cc1cccnc1 (stereo not drawn) [Compound 125] | > 10 µM | -11% | 45% | – | –
CCc1cccc(CC)c1-c1cc(OC)c2c(n1)CCCC2Nc1ccc(OC)cc1C (stereo not drawn) [Compound 63] | 2.35 µM | 74% | 82% | – | –
CCc1cccc(CC)c1-c1cc(OC)c2c(n1)CCCC2Nc1cc(Cl)ccc1C (stereo not drawn) [Compound 53] | 1.49 µM | 85% | 91% | – | –
CCc1cccc(CC)c1-c1cc(OC)c2c(n1)CCCC2N(C)N1CCCc2ccccc21 (stereo not drawn) [Compound 54] | 1.58 µM | 74% | 87% | – | –
CCc1cccc(CC)c1-c1cc(OC)c2c(n1)CCCC2NC1Cc2ccccc2C1 (stereo not drawn) [Compound 88] | > 10 µM | 25% | 51% | – | –
CCc1cccc(CC)c1-c1cc(OC)c2c(n1)CCCC2N1CCc2c(cccc2C(=O)OC)C1 (stereo not drawn) [Compound 99] | > 10 µM | 59% | 76% | – | –
CCc1cccc(CC)c1-c1cc(OC)c2c(n1)CCCC2Nc1c(C)ccc2ccccc12 (stereo not drawn) [Compound 119] | > 10 µM | 64% | 74% | – | –
CCN(c1cccc2ccccc12)C1CCCc2nc(-c3c(C)cccc3C)cc(OC)c21 (stereo not drawn) [Compound 16] | 0.133 µM | 88% | 90% | – | –
CCc1cccc(CC)c1-c1cc(OC)c2c(n1)CCCC2N(C)c1cc(OC)ccc1C (stereo not drawn) [Compound 38] | 0.56 µM | 84% | 87% | – | –
CCc1cccc(CC)c1-c1cc(OC)c2c(n1)CCCC2N(C)Cc1ccco1 (stereo not drawn) [Compound 92] | > 10 µM | 24% | 62% | – | –
CCc1cccc(CC)c1-c1cc(OC)c2c(n1)CCCC2N1CCc2cccc(C(=O)O)c2C1 (stereo not drawn) [Compound 130] | > 10 µM | -24% | -13% | – | –
CCc1cccc(CC)c1-c1cc(OC)c2c(n1)CCCC2Nc1ccccc1CCO (stereo not drawn) [Compound 5] | 0.03 µM | 92% | 97% | – | –
CCc1cccc(CC)c1-c1cc(OC)c2c(n1)CCCC2N1CCc2ccc(C(=O)OC)cc2C1 (stereo not drawn) [Compound 97] | > 10 µM | 47% | 59% | – | –

Source: patent US20090048295A1, “SUBSTITUTED 5,6,7,8-TETRAHYDROQUINOLINE DERIVATIVES, COMPOSITIONS, AND METHODS OF USE THEREOF” (priority 2007, published 2009)
